Results: article PMC3369139, “Preclinical evaluation of two ^68Ga-siderophores as potential radiopharmaceuticals for Aspergillus fumigatus infection imaging” (European Journal of Nuclear Medicine and Molecular Imaging, 2012)
Values joined by “and” are separate entries in the source; they are usually repeats but may differ in a detail not shown here. Equal values may be shown once.

Experiments:
[1] = Log P of ^68Ga-siderophores; assay type: physicochemical; details: determined as described previously [20]
Procedure: (§1) TAFC and FOXE were labelled with ^68Ga using acetate buffer at room temperature for 15 min (TAFC) and at 80 °C for 20 min (FOXE). For all in vitro and in vivo studies, the pH of the final product was adjusted with 1.1 M sodium acetate to pH 6–7. The radiochemical purity, log P, protein binding and stability of ^68Ga-siderophores in various media were determined, as described previously.

[2] = Protein binding in human serum; assay type: in vitro ADME
Procedure: as §1

Stability in human serum = assay type: in vitro ADME
Procedure: as §1

Stability in 0.1 M FeCl3 = assay type: physicochemical
Procedure: as §1

Stability in 6 mM DTPA = assay type: physicochemical
Procedure: as §1

[3] = system: A. fumigatus wild-type ATCC46645; assay: In vitro uptake of ^68Ga-siderophores by A. fumigatus cultures; assay type: cell-based, Aspergillus fumigatus; details: room temperature
Procedure: The Aspergillus strain used for in vitro studies was A. fumigatus wild-type ATCC46645 (American Type Culture Collection) cultured at 37 °C in Aspergillus minimal medium, containing 1 % glucose as the carbon source, 20 mM glutamine as the nitrogen source, salts and trace elements, as described previously. Iron-sufficient media contained […] FeSO4. For preparation of iron-deficient media, iron addition was omitted. Iron-deficient conditions were verified by detection of extracellular siderophore production, which is suppressed by iron.
Uptake by A. fumigatus in iron-deficient and iron-sufficient cultures was studied. For the monitoring of uptake over time, ^68Ga-siderophores (5 ng) were incubated in microbial media for 10, 20, 30, 45, 60 and 90 min at room temperature in 96-well plates (Millipore, Billerica, MA). For the monitoring of uptake blocking, excess of ferri-siderophore (Fe-TAFC or Fe-FOXE) and/or sodium azide was used. ^68Ga-siderophores were incubated in iron-deficient and iron-sufficient media for 45 min at room temperature in 96-well plates. The incubation was interrupted in both cases by filtration of the medium and rapid rinsing with ice-cold TRIS buffer. The filters were collected and counted in a γ-counter.

[4] = Biodistribution in normal Balb/c mice; assay type: in vivo; details: normal noninfected Balb/c mice, i.v. tail vein
Procedure: Normal noninfected Balb/c mice (female, 6 weeks old) were injected with ^68Ga-siderophore (2 MBq and 0.1–0.2 μg of siderophore per mouse) into the tail vein. Animals were killed by cervical dislocation 30 min and 90 min after injection. The organs and tissues (blood, spleen, pancreas, stomach, intestines, kidneys, liver, heart, lungs, muscle and femur) were removed and radioactivity was counted in a γ-counter. The results are expressed as percentage of injected dose per gram of tissue.

[5] = Metabolic stability in normal Balb/c mice (RP-HPLC of urine, blood, liver and kidney homogenates); assay type: in vivo; details: 30 min p.i., % intact on RP-HPLC
Procedure: Urine, blood, liver and kidneys of normal Balb/c mice injected with ^68Ga-siderophores and treated as described previously were collected 30 min after injection. The urine sample was directly injected onto the RP-HPLC column. Blood samples were precipitated with acetonitrile and centrifuged for 2 min, and the supernatant was injected onto the RP-HPLC column. Liver and kidneys were washed in the ice-cold TRIS buffer and liquidized using a mixer in a falcon tube containing 1 ml of TRIS buffer. The liver and kidney homogenates obtained were mixed with acetonitrile and centrifuged for 2 min, and the supernatant was injected onto the RP-HPLC column. In all cases 1 min fractions of the column eluate were collected and measured in a γ-counter. Samples were not collected at 90 min after injection because the measured activity was already low in the samples obtained 30 min after injection. All metabolic studies were performed using a previously described HPLC method.

A. fumigatus [6] = assay: Ex vivo biodistribution in rat A. fumigatus infection model, standard; design: species or system Lewis rats
Procedure: (§2) The A. fumigatus (A29) isolate was grown on Sabouraud dextrose agar (BD) for 5 days at 37 °C, and the conidia were harvested in 2 ml of sterile NaCl by gently rubbing with a pipette tip. The conidia suspension was transferred into a sterile 50 ml plastic tube. After homogenization (vortex) and filtration (40 μm nylon cell strainer; BD), the suspension was counted in a Neubauer chamber and adjusted to the volitional concentration in the range 1 × 10^5 to 1 × 10^9 conidia per millilitre.
(§3) Female or male Lewis rats (2–3 months old), weighing 200–250 g, were treated as described previously. Briefly, the rats received repeated intraperitoneal injections of cyclophosphamide to induce neutropenia before A. fumigatus administration. To prevent bacterial superinfection, the animals were given antibiotics throughout the experiment. Fungal infection was established by intratracheal administration of 100–300 μl of A. fumigatus inoculum in various concentrations (1 × 10^5 to 1 × 10^9 conidia per millilitre). Animals were injected intravenously 1–3 days (depending on the severity of infection) after A. fumigatus administration with ^68Ga-labelled siderophore (10–20 MBq and 1–2 μg of siderophore per rat). The rats were imaged or killed by overdosing with thiopental (Sandoz, Kundl, Austria) 2 h after injection. Various organs and tissues (blood, spleen, kidneys, liver and lungs) were removed and radioactivity was measured in a γ-counter. The excised organs were investigated for the presence of fungi, as described below.
(§4) The excised organs were homogenized in a petri dish using a sterile surgical blade and transferred to Sabouraud dextrose agar (BD) plates. The plates were incubated at 37 °C and examined daily for 7 days. […] Severe infection was defined as the presence of severe fungal growth 1 day after incubation, mild infection was defined as the presence of minor growth up to 3 days after incubation, and no infection was defined as lack of growth within 1 week of incubation.

A. fumigatus [7] = assay: Ex vivo biodistribution in rat A. fumigatus infection model, iron preload; design: species or system Lewis rats
Procedure: as §2, §3
Rats were treated as in the ‘standard’ infection model above, except that iron solution (FerMed; Medice, Iserlohn, Germany) 10 mg/kg was injected intraperitoneally three times (1 week, 4 days and 1 day) before A. fumigatus administration.
as §4

A. fumigatus [8] = assay: PET imaging in rat A. fumigatus infection model; assay type: in vivo, Lewis rats; details: infected rats, lungs, mean ± sd
Procedure: as §3
PET images were acquired with an Inveon animal PET/CT scanner (Siemens Preclinical Solutions, Knoxville, TN) with an intrinsic spatial resolution of 1.5 mm. The animals were placed in a prone position. Static PET images were acquired over 30 min starting 30 min after intravenous injection of ^68Ga-siderophore. Dynamic PET imaging was started upon injection and continued up to 60 min after injection. In addition, combined PET/CT scans were performed for anatomical reference. PET emission scans were acquired for 30 min, preceded by CT scans (spatial resolution 113 μm, 80 kV, 500 μA, exposure time 300 ms). After imaging, animals were killed by CO2/O2. Scans were reconstructed using Inveon Acquisition Workplace software (version 1.5; Siemens Preclinical Solutions, Knoxville, TN) using a 3-D ordered subset expectation maximization/maximum a posteriori (OSEM3D/MAP) algorithm with the following parameters: matrix 256 × 256 × 159, pixel size 0.43 × 0.43 × 0.8 mm^3 and a MAP prior β-value of 1.5.

[9] = iron preload model, 2 h after injection

O=C1CCC(=O)N([O-])CCCCCNC(=O)CCC(=O)N([O-])CCCCCNC(=O)CCC(=O)N([O-])CCCCCN1.[68Ga+3] [^68Ga-FOXE, ferrioxamine E]
Log P [1]: −1.65
Protein binding (%) ([2]; incubation time 30 min): 0.27%
Protein binding (%) ([2]; incubation time 60 min): 0.24%
Protein binding (%) ([2]; incubation time 120 min): 0.53%
Stability in all of the tested media (Stability in human serum; human serum, 0.1 M FeCl3 and 6 mM DTPA, summary bound over all media): ≥ 90%
Stability in human serum (%) (Stability in human serum; incubation time 30 min): 99.9%
Stability in human serum (%) (Stability in human serum; incubation time 60 min): 99.9%
Stability in human serum (%) (Stability in human serum; incubation time 120 min): 99.9%
Stability in 0.1-M FeCl3 (%) (Stability in 0.1 M FeCl3; incubation time 30 min): 92.9%
Stability in 0.1-M FeCl3 (%) (Stability in 0.1 M FeCl3; incubation time 60 min): 91.8%
Stability in 0.1-M FeCl3 (%) (Stability in 0.1 M FeCl3; incubation time 120 min): 94.5%
Stability in 6-mM DTPA (%) (Stability in 6 mM DTPA; incubation time 30 min): 94.3%
Stability in 6-mM DTPA (%) (Stability in 6 mM DTPA; incubation time 60 min): 93.8%
Stability in 6-mM DTPA (%) (Stability in 6 mM DTPA; incubation time 120 min): 93.2%
Uptake by A. fumigatus in iron-deficient cultures ([3]; 5 ng ^68Ga-siderophore, 10-90 min, 96-well plates, filtration, γ-counter): rapid uptake
Blocking of uptake with excess of ferri-siderophore and/or sodium azide ([3]; iron-deficient cultures, 45 min incubation): could be blocked
Blood level ([4]; 30 min after injection): 2.4 ± 0.86 %ID/g
Intestinal accumulation ([4]; 30 min after injection): 4.6 ± 1.42 %ID/g
Intestinal accumulation ([4]; 90 min after injection): 2.4 ± 0.85 %ID/g
Stability in kidney homogenate (%) [5]: 97.6%
Stability in liver homogenate (%) [5]: 71.3%
Stability in urine (%) ([5]; γ-counter): 95.9%
Stability in blood (%) ([5]; acetonitrile precipitation): 97.7%
Lung/blood ratio, control (mean ± sd) (A. fumigatus [6]; 2 h after injection): 1.48 ± 0.33 (n=5)
Lung/blood ratio, mild infection (mean ± sd) (A. fumigatus [6]; 2 h after injection): 5.45 ± 5.57 (n=4)
Lung/blood ratio, severe infection (mean ± sd) (A. fumigatus [6]; 2 h after injection): 62.35 ± 77.98 (n=5)
Lung/kidneys ratio, control (mean ± sd) (A. fumigatus [6]; 2 h after injection): 0.07 ± 0.02 (n=5)
Lung/kidneys ratio, mild infection (mean ± sd) (A. fumigatus [6]; 2 h after injection): 0.38 ± 0.42 (n=4)
Lung/kidneys ratio, severe infection (mean ± sd) (A. fumigatus [6]; 2 h after injection): 3.33 ± 2.85 (n=5)
Lung/liver ratio, control (mean ± sd) (A. fumigatus [6]; 2 h after injection): 0.87 ± 0.27 (n=5)
Lung/liver ratio, mild infection (mean ± sd) (A. fumigatus [6]; 2 h after injection): 5.45 ± 5.85 (n=4)
Lung/liver ratio, severe infection (mean ± sd) (A. fumigatus [6]; 2 h after injection): 47.79 ± 39.48 (n=5)
Mild infection (%ID/g - lungs) (mean ± sd) (A. fumigatus [6]; mildly infected rats, lungs ex vivo 2 h after injection, n in cell): 0.48 ± 0.54 %ID/g and 0.48 ± 0.54 (n=4) %ID/g
Control (%ID/g - lungs) (mean ± sd) (A. fumigatus [6]; rats showing no infection, lungs ex vivo 2 h after injection, n in cell): 0.04 ± 0.02 %ID/g and 0.04 ± 0.02 (n=5) %ID/g
Severe infection (%ID/g - lungs) (mean ± sd) (A. fumigatus [6]; severely infected rats, lungs ex vivo 2 h after injection, γ-counter, n in cell): 3.45 ± 1.00 (n=5) %ID/g
Severe infection (%ID/g - lungs) (A. fumigatus [7]; iron preload model (10 mg/kg i.p. three times), severely infected rats, lungs 2 h after injection, n in cell): 1.72 (n=1) %ID/g
Lung/blood ratio, control (A. fumigatus [7]; [9]): 0.64 (n=2)
Lung/blood ratio, mild infection (A. fumigatus [7]; [9]): 0.81 (n=2)
Lung/blood ratio, severe infection (A. fumigatus [7]; [9]): 2.41 (n=1)
Lung/kidneys ratio, control (A. fumigatus [7]; [9]): 0.06 (n=2)
Lung/kidneys ratio, mild infection (A. fumigatus [7]; [9]): 0.12 (n=2)
Lung/kidneys ratio, severe infection (A. fumigatus [7]; [9]): 0.11 (n=1)
Lung/liver ratio, control (A. fumigatus [7]; [9]): 0.58 (n=2)
Lung/liver ratio, mild infection (A. fumigatus [7]; [9]): 1.17 (n=2)
Lung/liver ratio, severe infection (A. fumigatus [7]; [9]): 5.93 (n=1)
Mild infection (%ID/g - lungs) (A. fumigatus [7]; iron preload model, mildly infected rats, lungs 2 h after injection, n in cell): 0.14 (n=2) %ID/g
Control (%ID/g - lungs) (A. fumigatus [7]; iron preload model, rats showing no infection, lungs 2 h after injection, n in cell): 0.04 (n=2) %ID/g
SUV (A. fumigatus [8]; calculated from PET imaging studies, n=10 (table)): 1.00 ± 0.81 (n=10)
Target/non-target ratio (A. fumigatus [8]; calculated from all PET imaging studies, n=13): 6.64 ± 2.91 (n=13)
